Reference: patent US20240067668A1, “HETEROARYL DERIVATIVE COMPOUND AND USE THEREOF” (VORONOI INC., priority 2020, published 2024)

Legend:
[1] = test system: BaF3-EGFR (Del19/T790M/C797S) cells; experiment: Inhibitory activity on Ba/F3 cell proliferation (CellTiter-Glo, 72 hours); format: cell-based; conditions: Ba/F3 cells expressing EGFR Del19/T790M/C797S
Experimental: (§1) The following experiments were performed to evaluate the inhibitory activity of the compound represented by Chemical Formula 1 according to the present invention on the proliferation of Ba/F3 cells expressing EGFR mutants.
(§2) BaF3-EGFR (WT) and BaF3-EGFR (Del19/T790M/C797S) cells were seeded in a clear bottom white 96-well plate at a density of 3×10^3/100 μl/well, and then 0.5 μl/well of the culture medium, containing the compounds at 12 concentrations (0.00001-2 mM) serially diluted in 3 folds and the DMSO control, was added to a final concentration of 0.00005-10 μM, followed by culturing in a 37° C. CO2 incubator for 72 hours. After 72 hours, the plates treated with the compounds were taken out, treated with 100 μl/well of CellTiter-Glo® 2.0 Assay (Promega) solution, and mixed well. After mixing well at room temperature for about 10 minutes, […] was measured using a microplate reader. As to Data, GI50 (μM) values were calculated using GraphPad Prism 8.3.0 (GraphPad software Inc., San Diego) as percentages in proportion to vehicle-based treated cells. The result values were calculated as a cell growth rate (%) compared to the control group. A graph was created using the GraphPad Prism version 5.0 program, and GI50 (μM) values were calculated.

[2] = test system: BaF3-EGFR (WT) cells; experiment: as above; format: cell-based; conditions: Ba/F3 cells expressing EGFR WT
Experimental: as §1, §2

| Structure (SMILES) | GI50 [1] [µM] | GI50 [2] [µM] |
| --- | --- | --- |
| Cc1cc(Nc2nc(Nc3ccc4nccnc4c3P(C)(C)=O)c3cc[nH]c3n2)c2c(c1N1CCN(C)CC1)CCO2 [Example 121, dimethyl (6-((2-((5-methyl-4-(4-methylpiperazin-1-yl)-2,3-dihydrobenzo-furan-7-yl)amino)-7H-pyrrolo[2,3-d]pyrimidin-4-yl)amino)quinoxalin-5-yl)phosphine oxide] | > 0.1 | > 0.1 |
| COc1cc(N2CCC(N3CCN(C)CC3)CC2)cnc1Nc1cc(Nc2ccc3nccnc3c2P(C)(C)=O)c2cc[nH]c2n1 [Example 65, (6-((6-((3-methoxy-5-(4-(4-methylpiperazin-1-yl)piperidin-1-yl)pyridin-2-yl)amino)-1H-pyrrolo[2,3-b]pyridin-4-yl)amino)quinoxalin-5-yl)dimethyl-phosphine oxide] | > 0.1 | > 0.1 |
| COc1cc(N2CCC(N3CCN(C)CC3)CC2)ccc1Nc1nc(Nc2ccc3nccnc3c2P(C)(C)=O)c2cc[nH]c2n1 [Example 57, (6-((2-((2-methoxy-4-(4-(4-methylpiperazin-1-yl)piperidin-1-yl)phenyl)amino)-7H-pyrrolo[2,3-d]pyrimidin-4-yl)amino)quinoxalin-5-yl)dimethyl-phosphine oxide] | 0.05 to 0.1 | 0.05 to 0.1 |
| COc1cc(N2CCC(N3CCN(C)CC3)CC2)c(C)cc1Nc1cc(Nc2ccc3nccnc3c2P(C)(C)=O)c2cc[nH]c2n1 [Example 63, (6-((6-((2-methoxy-5-methyl-4-(4-(4-methylpiperazin-1-yl)piperidin-1-yl)phenyl)amino)-1H-pyrrolo[2,3-b]pyridin-4-yl)amino)quinoxalin-5-yl)dimethyl-phosphine oxide] | > 0.1 | > 0.1 |
| COc1cc(N2CCN(C)CC2)c(-c2cnn(C)c2)cc1Nc1nc(Nc2ccc3nccnc3c2P(C)(C)=O)c2c(C(F)(F)F)c[nH]c2n1 [Example 53, (6-((2-((2-methoxy-5-(1-methyl-1H-pyrazol-4-yl)-4-(4-methyl-piperazin-1-yl)phenyl)amino)-5-(trifluoro-methyl)-7H-pyrrolo[2,3-d]pyrimidin-4-yl)amino)quinoxalin-5-yl)dimethyl-phosphine oxide] | > 0.1 | > 0.1 |
| COc1cc(N2CCN(C)CC2)c(-c2cnn(C)c2)cc1Nc1nc(Nc2ccc3nccnc3c2P(C)(C)=O)c2c(Cl)c[nH]c2n1 [Example 51, (6-((5-chloro-2-((2-methoxy-5-(1-methyl-1H-pyrazol-4-yl)-4-(4-methylpiperazin-1-yl)phenyl)amino)-7H-pyrrolo[2,3-d]pyrimidin-4-yl)amino)quinoxalin-5-yl)dimethyl-phosphine oxide] | 0.05 to 0.1 | > 0.1 |
| CN1CCN(c2cc(OCC(F)(F)F)c(Nc3nc(Nc4cnc5ccccc5c4P(C)(C)=O)c4cc[nH]c4n3)cc2-c2cnn(C)c2)CC1 [Example 14, dimethyl (3-((2-((5-(1-methyl-1H-pyrazol-4-yl)-4-(4-methylpiperazin-1-yl)-2-(2,2,2-trifluoroethoxy)phenyl)amino)-7H-pyrrolo[2,3-d]pyrimidin-4-yl)amino)quinolin-4-yl)phosphine oxide] | > 0.1 | > 0.1 |
| CN1CCN(C2CCN(c3ccc(Nc4nc(Nc5ccc6nccnc6c5P(C)(C)=O)c5cc[nH]c5n4)cc3)CC2)CC1 [Example 58, dimethyl (6-((2-((4-(4-(4-methylpiperazin-1-yl)piperidin-1-yl)phenyl)amino)-7H-pyrrolo[2,3-d]pyrimidin-4-yl)amino)quinoxalin-5-yl)phosphine oxide] | 0.05 to 0.1 | > 0.1 |
| COc1cc(N2CCN(C3CC3)CC2)c(-c2cnn(C)c2)cc1Nc1nc(Nc2ccc3nccnc3c2P(C)(C)=O)c2cc[nH]c2n1 [Example 42, (6-((2-((4-(4-cyclopropyl-piperazin-1-yl)-2-methoxy-5-(1-methyl-1H-pyrazol-4-yl)phenyl)amino)-7H-pyrrolo[2,3-d]pyrimidin-4-yl)amino)quinoxalin-5-yl)dimethyl-phosphine oxide] | ≤ 0.05 | > 0.1 |
| COc1cc(N2CCC(N3CCN(C)CC3)CC2)ccc1Nc1cc(Nc2ccc3nccnc3c2P(C)(C)=O)c2cc[nH]c2n1 [Example 64, (6-((6-((2-methoxy-4-(4-(4-methylpiperazin-1-yl)piperidin-1-yl)phenyl)amino)-1H-pyrrolo[2,3-b]pyridin-4-yl)amino)quinoxalin-5-yl)dimethyl-phosphine oxide] | > 0.1 | > 0.1 |
| CN1CCN(c2c(-c3cnn(C)c3)cc(Nc3nc(Nc4ccc5nccnc5c4P(C)(C)=O)c4cc[nH]c4n3)c3c2OCCO3)CC1 [Example 130, dimethyl (6-((2-((7-(1-methyl-1H-pyrazol-4-yl)-8-(4-methylpiperazin-1-yl)-2,3-dihydrobenzo [b][1,4]dioxin-5-yl)amino)-7H-pyrrolo[2,3-d]pyrimidin-4-yl)amino)quinoxalin-5-yl)phosphine oxide] | ≤ 0.05 | > 0.1 |
| COc1cc(N2CCC(N3CCN(C)CC3)CC2)c(F)cc1Nc1nc(Nc2ccc3nccnc3c2P(C)(C)=O)c2cc[nH]c2n1 [Example 66, (6-((2-((5-fluoro-2-methoxy-4-(4-(4-methylpiperazin-1-yl)piperidin-1-yl)phenyl)amino)-7H-pyrrolo[2,3-d]pyrimidin-4-yl)amino)quinoxalin-5-yl)dimethyl-phosphine oxide] | > 0.1 | > 0.1 |
| COc1cc(N2CCN(C)CC2)c(-c2cnn(C)c2)cc1Nc1nc(Nc2ccc3nccnc3c2P(C)(C)=O)c2c(C#N)c[nH]c2n1 [Example 52] | > 0.1 | > 0.1 |
| Cn1cc(-c2cc(Nc3nc(Nc4ccc5nccnc5c4P(C)(C)=O)c4cc[nH]c4n3)ccc2N2CCC(N3CCOCC3)CC2)cn1 [Example 40, dimethyl (6-((2-((3-(1-methyl-1H-pyrazol-4-yl)-4-(4-morpholino-piperidin-1-yl)phenyl)amino)-7H-pyrrolo[2,3-d]pyrimidin-4-yl)amino)quinoxalin-5-yl) phosphinexide] | ≤ 0.05 | 0.05 to 0.1 |
| COc1cc(N2CCC(N3CCN(C)CC3)CC2)c(C)cc1Nc1nc(Nc2ccc3nccnc3c2P(C)(C)=O)c2sccc2n1 [Example 59, (6-((2-((2-methoxy-5-methyl-4-(4-(4-methylpiperazin-1-yl)piperidin-1-yl)phenyl)amino)thieno [3,2-d]pyrimidin-4-yl)amino)quinoxalin-5-yl)dimethyl-phosphine oxide] | > 0.1 | > 0.1 |
| COc1cc(N2CCC(N3CCN(C)CC3)CC2)c(C)cc1Nc1nc(Nc2cnc3ccccc3c2P(C)(C)=O)c2cc[nH]c2n1 [Example 90, (3-((2-((2-methoxy-5-methyl-4-(4-(4-methylpiperazin-1-yl)piperidin-1-yl)phenyl)amino)-7H-pyrrolo[2,3-d]pyrimidin-4-yl)amino)quinolin-4-yl)dimethyl-phosphine oxide] | > 0.1 | > 0.1 |
| Cc1cc(Nc2nc(Nc3ccc4nccnc4c3P(C)(C)=O)c3cc[nH]c3n2)c(OCC(F)(F)F)cc1N1CCOCC1 [Example 11, dimethyl (6-((2-((5-methyl-4-morpholino-2-(2,2,2-trifluoroethoxy)phenyl)amino)-7H-pyrrolo[2,3-d]pyrimidin-4-yl)amino)quinoxalin-5-yl) phosphineoxide] | > 0.1 | > 0.1 |
| COc1cc(N2CCN(C)CC2)c(-c2cnn(C(C)C)c2)cc1Nc1nc(Nc2ccc3nccnc3c2P(C)(C)=O)c2cc[nH]c2n1 [Example 49, (6-((2-((5-(1-isopropyl-1H-pyrazol-4-yl)-2-methoxy-4-(4-methyl-piperazin-1-yl)phenyl)amino)-7H-pyrrolo[2,3-d]pyrimidin-4-yl)amino)quinoxalin-5-yl)dimethyl-phosphine oxide] | > 0.1 | > 0.1 |
| C[C@@H]1CN(c2cc(OCC(F)(F)F)c(Nc3nc(Nc4ccc5nccnc5c4P(C)(C)=O)c4cc[nH]c4n3)cc2-c2cnn(C)c2)C[C@H](C)O1 [Example 10, (6-((2-((4-((2R, 6S)-2,6-dimethyl-morpholino)-5-(1-methyl-1H-pyrazol-4-yl)-2-(2,2,2-trifluoroethoxy)phenyl)amino)-7H-pyrrolo[2,3-d]pyrimidin-4-yl)amino)quinoxalin-5-yl)dimethyl phosphine oxide] | ≤ 0.05 | > 0.1 |
| CN1CCN(c2c(-c3cnn(C)c3)cc(Nc3nc(Nc4ccc5nccnc5c4P(C)(C)=O)c4cc[nH]c4n3)c3c2OCO3)CC1 [Example 129, dimethyl (6-((2-((6-(1-methyl-1H-pyrazol-4-yl)-7-(4-methylpiperazin-1-yl)benzo[d] [1,3]dioxol-4-yl)amino)-7H-pyrrolo[2,3-d]pyrimidin-4-yl)amino)quinoxalin-5-yl)phosphine oxide] | ≤ 0.05 | > 0.1 |
| CN1CCN(c2ccc(Nc3nc(Nc4ccc5nccnc5c4P(C)(C)=O)c4cc[nH]c4n3)c(OCC(F)(F)F)c2)CC1 [Example 7, dimethyl (6-((2-((4-(4-methylpiperazin-1-yl)-2-(2,2,2-trifluoroethoxy)phenyl)amino)-7H-pyrrolo[2,3-d]pyrimidin-4-yl)amino)quinoxalin-5-yl)phosphine oxide] | > 0.1 | > 0.1 |
